# Laboratory results from ChEMBL document CHEMBL3352801, “Synthesis and lipid-lowering evaluation of 3-methyl-1H-purine-2,6-dione derivatives as potent and orally available anti-obesity agents” (Eur J Med Chem, 2014).
# Experiments:
# Mus musculus [1] = assay: Antiobesity activity in diet-induced obese C57Bl/6 mouse assessed as reduction in body weight at 50 mg/kg/day, po for 4 weeks administered with high-fat diet; format: functional; parameters: scale not given: the % may be the effect or the level left
# Mus musculus [2] = assay: Antiobesity activity in diet-induced obese C57Bl/6 mouse assessed as loss of liver weight at 50 mg/kg/day, po for 4 weeks administered with high-fat diet; format: functional
# Mus musculus [3] = assay: Antiobesity activity in diet-induced obese C57Bl/6 mouse assessed as loss of liver weight at 150 mg/kg/day, po for 4 weeks administered with high-fat diet; format: functional
# Mus musculus [4] = assay: Antiobesity activity in diet-induced obese C57Bl/6 mouse assessed as loss of epididymal fat mass at 50 mg/kg/day, po for 4 weeks administered with high-fat diet; format: functional
# Mus musculus [5] = assay: Antiobesity activity in diet-induced obese C57Bl/6 mouse assessed as loss of epididymal fat mass at 150 mg/kg/day, po for 4 weeks administered with high-fat diet; format: functional
# Mus musculus [6] = assay: Antiobesity activity in diet-induced obese C57Bl/6 mouse assessed as reduction in hepatic triglyceride level at 50 mg/kg/day, po for 4 weeks administered with high-fat diet by Oil Red O staining-based histological method; format: functional; parameters: scale not given: the % may be the effect or the level left
# [7] = Cmax in Sprague-Dawley rat at 5 mg/kg, iv; format: ADME, organism-based; parameters: dose 5 mg/kg, route intravenous; conditions: in vivo
# [8] = Tmax in Sprague-Dawley rat at 5 mg/kg, iv; format: ADME, organism-based; parameters: dose 5 mg/kg, route intravenous; conditions: in vivo
# [9] = Half life in Sprague-Dawley rat at 5 mg/kg, iv; format: ADME, organism-based; parameters: dose 5 mg/kg, route intravenous; conditions: in vivo
# [10] = AUC (0 to t) in Sprague-Dawley rat at 5 mg/kg, iv; format: ADME, organism-based; parameters: dose 5 mg/kg, route intravenous; conditions: plasma
# [11] = Volume of distribution in Sprague-Dawley rat at 5 mg/kg, iv; format: ADME, organism-based; parameters: dose 5 mg/kg, route intravenous; conditions: in vivo
# [12] = Total clearance in Sprague-Dawley rat at 5 mg/kg, iv; format: ADME, organism-based; parameters: dose 5 mg/kg, route intravenous; conditions: in vivo
# [13] = Cmax in Sprague-Dawley rat at 20 mg/kg, po; format: ADME, organism-based; parameters: dose 20 mg/kg, route oral; conditions: in vivo
# [14] = Tmax in Sprague-Dawley rat at 20 mg/kg, po; format: ADME, organism-based; parameters: dose 20 mg/kg, route oral; conditions: in vivo
# [15] = Half life in Sprague-Dawley rat at 20 mg/kg, po; format: ADME, organism-based; parameters: dose 20 mg/kg, route oral; conditions: in vivo
# [16] = AUC (0 to t) in Sprague-Dawley rat at 20 mg/kg, po; format: ADME, organism-based; parameters: dose 20 mg/kg, route oral; conditions: plasma
# Rattus norvegicus = assay: Volume of distribution in Sprague-Dawley rat at 20 mg/kg, po; format: ADME, organism-based; parameters: dose 20 mg/kg, route oral; conditions: in vivo
# [17] = Total clearance in Sprague-Dawley rat at 20 mg/kg, po; format: ADME, organism-based; parameters: dose 20 mg/kg, route oral; conditions: in vivo
# [18] = Oral bioavailability in Sprague-Dawley rat at 20 mg/kg; format: ADME, organism-based; conditions: in vivo
# [19] = Solubility of the compound at room temperature; format: physicochemical
# Mus musculus [20] = assay: Antiobesity activity in diet-induced obese C57Bl/6 mouse assessed as reduction in body weight at 20 mg/kg/day, po for 4 weeks administered with high-fat diet; format: functional; parameters: scale not given: the % may be the effect or the level left
# Mus musculus [21] = assay: Toxicity in diet-induced obese C57Bl/6 mouse assessed as change in food intake at 20 mg/kg/day, po for 4 weeks administered with high-fat diet; format: organism-based; parameters: route oral; conditions: in vivo, 672 h
# Mus musculus [22] = assay: Antiobesity activity in diet-induced obese C57Bl/6 mouse assessed as loss of liver weight at 20 mg/kg/day, po for 4 weeks administered with high-fat diet; format: functional
# Mus musculus [23] = assay: Antiobesity activity in diet-induced obese C57Bl/6 mouse assessed as loss of epididymal fat mass at 20 mg/kg/day, po for 4 weeks administered with high-fat diet; format: functional
# Mus musculus [24] = assay: Antiobesity activity in diet-induced obese C57Bl/6 mouse assessed as reduction in fasting blood glucose at 20 mg/kg/day, po for 4 weeks administered with high-fat diet (reference value: 4.88 +/- 0.75 mM); format: functional
# Mus musculus [25] = assay: Antiobesity activity in diet-induced obese C57Bl/6 mouse assessed as change in insulin level at 20 mg/kg/day, po for 4 weeks administered with high-fat diet (reference value: 4.31 +/- .82 mU); format: functional
# Mus musculus [26] = assay: Toxicity in diet-induced obese C57Bl/6 mouse assessed as change in ALT level at 20 mg/kg/day, po for 4 weeks administered with high-fat diet (reference value: 29.6 +/- 8.29 U/L); format: organism-based; parameters: route oral; conditions: in vivo, 672 h
# Mus musculus [27] = assay: Toxicity in diet-induced obese C57Bl/6 mouse assessed as change in AST level at 20 mg/kg/day, po for 4 weeks administered with high-fat diet (reference value: 128.00 +/- 20.59 U/L); format: organism-based; parameters: route oral; conditions: in vivo, 672 h
# Mus musculus [28] = assay: Antiobesity activity in diet-induced obese C57Bl/6 mouse assessed as reduction in triglyceride level at 20 mg/kg/day, po for 4 weeks administered with high-fat diet (reference value: 0.96 +/- 0.14 mM); format: functional
# Mus musculus [29] = assay: Antiobesity activity in diet-induced obese C57Bl/6 mouse assessed as reduction in LDL level at 20 mg/kg/day, po for 4 weeks administered with high-fat diet (reference value: 0.13 +/- 0.02 mM); format: functional
# Mus musculus [30] = assay: Antiobesity activity in diet-induced obese C57Bl/6 mouse assessed as increase in HDL level at 20 mg/kg/day, po for 4 weeks administered with high-fat diet (reference value: 1.02 +/- 0.13 mM); format: functional
# Mus musculus [31] = assay: Antiobesity activity in diet-induced obese C57Bl/6 mouse assessed as reduction in FFA level at 20 mg/kg/day, po for 4 weeks administered with high-fat diet (reference value: 25.07 +/- 3.49 ng/L); format: functional
# Mus musculus [32] = assay: Antiobesity activity in diet-induced obese C57Bl/6 mouse assessed as reduction in HOMA-IR value at 20 mg/kg/day, po for 4 weeks administered with high-fat diet (reference value: 0.94 +/- 0.23 no_unit); format: functional
# Mus musculus [33] = assay: Antiobesity activity in diet-induced obese C57Bl/6 mouse assessed as reduction in fasting blood glucose at 50 mg/kg/day, po for 4 weeks administered with high-fat diet (reference value: 4.88 +/- 0.75 mM); format: functional
# Mus musculus [34] = assay: Antiobesity activity in diet-induced obese C57Bl/6 mouse assessed as change in insulin level at 50 mg/kg/day, po for 4 weeks administered with high-fat diet (reference value: 4.31 +/- .82 mU); format: functional
# Mus musculus [35] = assay: Toxicity in diet-induced obese C57Bl/6 mouse assessed as change in ALT level at 50 mg/kg/day, po for 4 weeks administered with high-fat diet (reference value: 29.6 +/- 8.29 U/L); format: organism-based; parameters: route oral; conditions: in vivo, 672 h
# Mus musculus [36] = assay: Toxicity in diet-induced obese C57Bl/6 mouse assessed as change in AST level at 50 mg/kg/day, po for 4 weeks administered with high-fat diet (reference value: 128.00 +/- 20.59 U/L); format: organism-based; parameters: route oral; conditions: in vivo, 672 h
# Mus musculus [37] = assay: Antiobesity activity in diet-induced obese C57Bl/6 mouse assessed as reduction in triglyceride level at 50 mg/kg/day, po for 4 weeks administered with high-fat diet (reference value: 0.96 +/- 0.14 mM); format: functional
# Mus musculus [38] = assay: Antiobesity activity in diet-induced obese C57Bl/6 mouse assessed as reduction in LDL level at 50 mg/kg/day, po for 4 weeks administered with high-fat diet (reference value: 0.13 +/- 0.02 mM); format: functional
# Mus musculus [39] = assay: Antiobesity activity in diet-induced obese C57Bl/6 mouse assessed as increase in HDL level at 50 mg/kg/day, po for 4 weeks administered with high-fat diet (reference value: 1.02 +/- 0.13 mM); format: functional
# Mus musculus [40] = assay: Antiobesity activity in diet-induced obese C57Bl/6 mouse assessed as reduction in FFA level at 50 mg/kg/day, po for 4 weeks administered with high-fat diet (reference value: 25.07 +/- 3.49 ng/L); format: functional
# Mus musculus [41] = assay: Antiobesity activity in diet-induced obese C57Bl/6 mouse assessed as reduction in HOMA-IR value at 50 mg/kg/day, po for 4 weeks administered with high-fat diet (reference value: 0.94 +/- 0.23 no_unit); format: functional
# Mus musculus [42] = assay: Antiobesity activity in diet-induced obese C57Bl/6 mouse assessed as reduction in hepatic triglyceride level at 20 mg/kg/day, po for 4 weeks administered with high-fat diet by Oil Red O staining-based histological method; format: functional; parameters: scale not given: the % may be the effect or the level left
compound,measurement,setting,value
CCn1c(-c2ccc(OCCN(C)c3ccccn3)cc2)nc2c1c(=O)n(Cc1ccccc1C#N)c(=O)n2C.Cl,Activity,Mus musculus [1],15.08%
same,Activity,Mus musculus [2],22.67%
same,Activity,Mus musculus [3],22%
same,Activity,Mus musculus [4],56.2%
same,Activity,Mus musculus [5],9.92%
same,Activity,Mus musculus [6],21.59%
same,Cmax,[7],1740 ng/mL
same,Tmax,[8],4.98 min
same,half-life,[9],5.82 h
same,AUC(0-t),[10],1780 ng·h/mL
same,Vd,[11],23.6 L/kg
same,clearance,[12],47.1 mL/min/kg
same,Cmax,[13],465 ng/mL
same,Tmax,[14],2.79 h
same,half-life,[15],6.97 h
same,AUC(0-t),[16],4190 ng·h/mL
same,Vd,Rattus norvegicus,67.208 L/kg
same,CL/F,[17],139 mL/min/kg
same,bioavailability,[18],58.9%
same,solubility,[19],3280 µg/mL
same,Activity,Mus musculus [20],12.86%
same,Activity,Mus musculus [21],Non-toxic
same,Activity,Mus musculus [22],20%
same,Activity,Mus musculus [23],18.18%
same,Activity,Mus musculus [24],8.42 mM
same,Activity,Mus musculus [25],7.48 mU
same,Activity,Mus musculus [26],24 U/L
same,Activity,Mus musculus [27],125.71 U/L
same,Activity,Mus musculus [28],1.25 mM
same,Activity,Mus musculus [29],0.22 mM
same,Activity,Mus musculus [30],1.31 mM
same,Activity,Mus musculus [31],26.8 ng/L
same,Activity,Mus musculus [32],2.98
same,Activity,Mus musculus [33],7.76 mM
same,Activity,Mus musculus [34],4.76 mU
same,Activity,Mus musculus [35],18.86 U/L
same,Activity,Mus musculus [36],131.43 U/L
same,Activity,Mus musculus [37],0.94 mM
same,Activity,Mus musculus [38],0.17 mM
same,Activity,Mus musculus [39],1.38 mM
same,Activity,Mus musculus [40],25.73 ng/L
same,Activity,Mus musculus [41],1.59
same,Activity,Mus musculus [42],16.8%
